Experimental data as given in patent publication US6214811A, “Acyclovir diester derivatives” (Drug Innovation & Design, Inc., priority 2000, dated 2001).

Columns and labels:
[1] = test system: dermal herpes simplex virus-1 (HSV-1) infection; experiment: Dermal HSV-1 infection in guinea pigs, topical treatment (lesion number, lesion area, skin virus titer); format: in vivo, guinea pig (Female Hartley outbred); conditions: for effectiveness in reducing dermal HSV-1 virus infection compared with acyclovir and phosphotriester prodrugs (in words): dermal HSV-1 infection; for lesion number, lesion area and lesion virus titer (summary in words): guinea pigs with dermal HSV-1 infections, compared to vehicle/placebo
Method: The formulation for Prodrug 1 contained 5% EL-620 EMULPHOR (polyoxyethylated castor oil) (Rhone Poluenc), 5% CARBOPOL (Carboxypolymethylene, sodium salt) (B. F. Goodrich), 10% ethanol and 2% by weight Prodrug 1. The balance of the formulation consisted of water.
EL-620 EMULPHOR and water were mixed and ultrasonicated to give a clear emulsion, to which the ethanol was added. The prodrug was then added, and the mixture was ultrasonicated. The sodium carbopol was then added to the emulsion and mixed until to homogeneity.
The placebo was prepared identically to the pharmaceutical compositions except that the prodrugs were omitted.
The pharmaceutical compositions were stored at room temperature.
Female Hartley outbred guinea pigs, 400 to 450 grams, were obtained from Charles River Breeding Labs, Wilmington, Mass. Animals were anesthetized with 25 mg/kg ketamine and 5 mg/kg xylazine SQ. Hair on the dorsum from the shoulders to the rump was removed with electric clippers followed by two 5-10 minute applications of a chemical depilatory. A grid of four areas was demarcated with a pen on both sides of the spine at levels corresponding to mid back and rump.
Undiluted HSV-1 virus stock (0.035 ml) was applied to each different area and introduced through the skin at well-spaced sites at ten activations of a six-pronged spring-loaded vaccination instrument (Sterneedle, Pan Ray Division, Ormont Drug, Englewood, N.J.). The day of inoculation is Day 0. Approximately 250 mg of drug or placebo was applied to the areas according to the dosing regimen on Days 1, 2 and 3. Eight guinea pigs were used during the experiments allowing eight comparisons between each drug and its placebo.
On Day 4 regrown hair on the dorsum of the guinea pigs was removed with one 3-4 minute application of a chemical depilatory. HSV lesions were counted and Polaroid pictures of the animals' backs were taken. The animals were sacrificed using CO2 gas and the full thickness skin of the back was removed by dissection. The square of the skin from each of the four treatment areas was placed into 15 mls of tissue culture medium with 2% FES in an ice bath. The samples were then homogenized in a stomacher Lab Blender 80 (Tekmar Co.). Debris was pelleted by centrifugation and the supernatants collected and frozen at -70° C. until assay for infectivity by plaque formation in VERO cells.
The mean and standard deviation for number of lesions, total lesion area and lesion virus titer were computed. Paired data (drug/vehicle) were evaluated by the Wilcoxon signed-rank test using percent differences between log10 derivatives of mean lesions severity at drug-treated sites compared to the Vehicle-treated sites.
Prodrug 2 was formulated as described in Example 1. One Hartley guinea pig was inoculated with HSV-1 as described in Example 1. The guinea pig was treated with Prodrug 2 according to the protocol used in Example 1 for Prodrug 1.

pig liver esterase = experiment: Incubation with pig liver esterase in phosphate buffered D2O, NMR; format: in vitro ADME
Excerpt: This assay is described in Glazier, WO 91/19721 entitled "Phosphorus Prodrugs" and can be used to determine suitable hydroxyl or amino protecting groups which can be cleaved in vivo. The entire teachings of […] are incorporated herein by reference. It is to be understood that there are other in vitro assays known to one of ordinary skill in the art employing esterases, amidases or enzymes capable of cleaving carbonate, carbamate, ester and amide groups which can also be used to determine suitable protecting groups.

herpes simplex labialis = conditions: cited from earlier work
[2] = guinea pigs, topical, 2% by weight Prodrug 1 formulation, Days 1, 2 and 3, vs placebo (p<0.01)

COC(=O)CC(OP(=O)(O)OCCOCn1cnc2c(=O)[nH]c(N)nc21)c1ccc(OC(C)=O)cc1 (centres unmarked) [Prodrug 2, sodium 2-((9-guanylyl)methyl)oxy)ethyl-1-(4-acetoxyphenyl)-2-((methoxy)carbonyl)ethyl phosphate]
effectiveness in reducing dermal HSV-1 virus infection compared with acyclovir and phosphotriester prodrugs (in words) [1]: more Effective in Reducing Dermal HSV-1 Virus Infection than Acyclovir
lesion number, lesion area and lesion virus titer (summary in words) [1]: dramatic reduction in lesion number, in lesion area and in lesion virus titer
reduction in lesion number, lesion area and skin viral titers (in words) ([1]; one Hartley guinea pig, formulated as in Example 1, compared with Prodrug 1 in Example 1): comparable reduction in lesion number, lesion area and in skin viral titers

COC(=O)CC(OP(=O)(O)OCCOCn1cnc2c(=O)[nH]c(N)nc21)c1ccc(OC(=O)C(C)(C)C)cc1 (centres unmarked) [Prodrug 1, Sodium 2-((9-Guanylyl)methyl)oxy)ethyl 1-(4-((2,2-dimethylpropionyl)oxy)-phenyl)-2-((methoxy)carbonyl)ethyl phosphate]
effectiveness in reducing dermal HSV-1 virus infection compared with acyclovir and phosphotriester prodrugs (in words) [1]: more Effective in Reducing Dermal HSV-1 Virus Infection than Acyclovir
lesion number, lesion area and lesion virus titer (summary in words) [1]: dramatic reduction in lesion number, in lesion area and in lesion virus titer
reduction in lesion area [1, 2]: 79%
reduction in lesion number [1, 2]: 72%
reduction in skin viral titers [1, 2]: 93%
degradation by esterase, products by NMR (pig liver esterase): degraded to acyclovir monophosphate and p-hydroxycinnamic

Nc1nc2c(ncn2COCCO)c(=O)[nH]1 [acyclovir]
effectiveness of oral acyclovir in cold sores (herpes simplex labialis; oral): only partially effective
response of cold sores to topical acyclovir (herpes simplex labialis; topical): do not respond
